Assay results from US4440772A, “Acid addition salts of dextrorotatory ergot alkaloids, a process for the preparation thereof as well as their use as medicines” (priority 1978, dated 1984).

Legend:
[1] = acute toxicity (LD50), intraperitoneal administration; conditions: mouse, in vivo, ip, male mice, 24 hours after administration
Description: The volume of injected solution was 0.01 ml/g of body weight. In the following Table I acute toxicity of dextrorotatory ergot alkaloids in comparison with levorotatory ergot alkaloids 24 hours after the intraperitoneal administration is given.

[2] = tested on: spontaneously hypertensive rats; assay: effect on arterial pressure of spontaneously hypertensive rats; assay type: in vivo, rats (variety Okamoto Aoki F32)
Description: For the experiment groups of 10 spontaneously hypertensive rats (variety Okamoto Aoki F32) of both sexes, weighing from 200 to 250 g, were used. The acid addition salts of said dextrorotatory ergot alkaloids were administered intraperitoneally in doses of 50 mcg/kg of body weight and systolic blood pressure was measured on the rats' tails by means of plethysmographic method (K. Okamoto and K. Aoki, Jap. Circulat. J. 27, 1963, 282).

[3] = tested on: isolated heart of a guinea pig; assay: effect on isolated heart of a guinea pig, modified Langendorff's method
Text: The effect of dextrorotatory ergot alkaloids according to the invention on heart in vitro was examined on isolated heart of a guinea pig by the modified Langendorff's method (Zalar et al., Poll. Chim. Farmac. 114, 1975, 146). Alkaloids were infused by an apparatus for slow infusion (B. Melsungen).

[4] = tested on: arrhythmias induced by adrenalin; assay: effect on arrhythmia induced by adrenalin; assay type: in vivo; conditions: 2.0 mg/kg intraperitoneally, guinea pigs, adrenalin 0.02 mg/kg intravenously
Description: For experiments, guinea pigs of both sexes, weighing from 400 to 550 g, were used. The narcotized animals (urethane 1.6 g/kg of body weight, intraperitoneally) were at first intravenously administered adrenalin (0.02 mg/kg) and then dextrorotatory ergot alkaloids. 1 hour and 1.5 hours after the administration of dextrorotatory ergot alkaloids, adrenalin was again administered intravenously (0.02 mg/kg) and the presence as well as duration of arrhythmias was ascertained.

[5] = tested on: alpha-adrenergic receivers of the dilatating pupil muscle; assay: effect on the function of the pupil (mydriatic effect, Polewka's method); assay type: in vivo; conditions: 5 mg/kg intravenously, mouse
Description: The phenomenon of mydriasis induced by ergot alkaloids results from the stimulation of alpha-adrenergic receivers of the dilatating pupil muscle (Z. Votava et al., Arch. int. Pharmacodin. 45, 1958, 114).
The mydriatic effect of dextrorotatory ergot alkaloids administered intravenously was determined with a monocular measuring magnifying glass by Polewka's method (A. R. Turner, Screening Methods in Pharmacology, 1965, p. 174 ff.).
The size of the pupil was measured at first before the administration of the substance and then 15, 30 and 60 minutes after intravenous administration of alkaloids into the mouse tail (dose 5 mg/kg of body weight).

[6] = tested on: smooth muscles of blood vessels; assay: effect on blood pressure drop in rats with cut spinal cord; assay type: in vivo, rats (variety Wistar); conditions: for duration of long-duration hypertension: acid addition salts, 1.5 mg/kg of body weight; for vasoconstrictory effect: contraction of smooth muscles of blood vessels
Text: Rats (variety Wistar) in urethane narcosis were cut their spinal cord in the region of the second cervical vertebra and connected to an artificial breathing apparatus (B. Melsungen). By this intervention the central regulation of blood pressure was eliminated. In so treated animals blood pressure dropped for about 50 mm Hg. The experiment was supposed to show whether the examined substances directly affected the smooth muscles of blood vessels.

[7] = control, spontaneously hypertensive rats
[8] = day 2, 50 mcg/kg intraperitoneally
[9] = day 4, 50 mcg/kg intraperitoneally
[10] = day 6, 50 mcg/kg intraperitoneally
[11] = day 8, 50 mcg/kg intraperitoneally
[12] = day 10, 50 mcg/kg intraperitoneally

Row | SMILES | LD50 at 24 h [1] | Systolic blood pressure [2, 7] | Systolic blood pressure [2, 8] | Systolic blood pressure [2, 9] | Systolic blood pressure [2, 10] | Systolic blood pressure [2, 11] | Systolic blood pressure [2, 12] | Shortening of arrhythmia duration [4] | The increase of pupil widening in comparison with the control ([5]; after 15 min.) | The increase of pupil widening in comparison with the control ([5]; after 30 min.) | The increase of pupil widening in comparison with the control ([5]; after 60 min.) | other results
1 | CC(C)[C@H]1C(=O)N2CCC[C@H]2[C@]2(O)O[C@](NC(=O)[C@H]3C=C4c5cccc6[nH]cc(c56)C[C@H]4N(C)C3)(C(C)C)C(=O)N12 [ergocorninine methanesulfonate, Ergocorninine methanesulfonate] | > 520 mg/kg | 190 mm Hg | 182 mm Hg | 176 mm Hg | 166 mm Hg | 160 mm Hg | 161 mm Hg | 46 % of control | 52.7% | 36.1% | 19.4% | inhibition at 4.9 µg/g ([3]; Cavia porcellus, dose 4.90 mcg/g of heart, read-out: (-)chronotropic (maximum)): 11%
2 | CC(C)[C@H]1C(=O)N2CCC[C@H]2[C@]2(O)O[C@](NC(=O)[C@H]3C=C4c5cccc6[nH]cc(c56)C[C@H]4N(C)C3)(C(C)C)C(=O)N12 [ergocorninine] |  |  |  |  |  |  |  |  |  |  |  | duration of long-duration hypertension [6]: more than 60 minutes; vasoconstrictory effect [6]: vasoconstrictory effect
3 | CC(C)[C@@]1(NC(=O)[C@@H]2C=C3c4cccc5[nH]cc(c45)C[C@H]3N(C)C2)O[C@@]2(O)[C@@H]3CCCN3C(=O)[C@H](Cc3ccccc3)N2C1=O [ergocristine methanesulfonate, reference compound] | 234 mg/kg |  |  |  |  |  |  |  |  |  |  | 
4 | CC(C)[C@@]1(NC(=O)[C@H]2C=C3c4cccc5[nH]cc(c45)C[C@H]3N(C)C2)O[C@@]2(O)[C@@H]3CCCN3C(=O)[C@H](Cc3ccccc3)N2C1=O [ergocristinine methanesulfonate, Ergocristinine methanesulfonate] | > 600 mg/kg | 187 mm Hg | 183 mm Hg | 177 mm Hg | 169 mm Hg | 160 mm Hg | 152 mm Hg | 32 % of control | 48.7% | 10.3% | 2.5% | activation at 4.98 µg/g ([3]; Cavia porcellus, dose 4.98 mcg/g of heart, read-out: (+)inotropic (maximum)): 9%; inhibition at 4.98 µg/g ([3]; Cavia porcellus, dose 4.98 mcg/g of heart, read-out: (-)chronotropic (maximum)): 12%
5 | CC(C)C[C@H]1C(=O)N2CCC[C@H]2[C@]2(O)O[C@](NC(=O)[C@@H]3C=C4c5cccc6[nH]cc(c56)C[C@H]4N(C)C3)(C(C)C)C(=O)N12 [ergocryptine methanesulfonate, reference compound] | 188 mg/kg |  |  |  |  |  |  |  |  |  |  | 
6 | CC(C)C[C@H]1C(=O)N2CCC[C@H]2[C@]2(O)O[C@](NC(=O)[C@H]3C=C4c5cccc6[nH]cc(c56)C[C@H]4N(C)C3)(C(C)C)C(=O)N12 [ergocryptinine methanesulfonate, Ergocryptinine methanesulfonate] | > 520 mg/kg | 189 mm Hg | 181 mm Hg | 176 mm Hg | 168 mm Hg | 161 mm Hg | 160 mm Hg | 63 % of control | 117.4% | 91.6% | 32.2% | activation at 0.04 µg/g ([3]; Cavia porcellus, dose 0.04 mcg/g of heart, read-out: (+)inotropic (maximum)): 111%; inhibition at 0.04 µg/g ([3]; Cavia porcellus, dose 0.04 mcg/g of heart, read-out: (-)chronotropic (maximum)): 21%
7 | CC(C)C[C@H]1C(=O)N2CCC[C@H]2[C@]2(O)O[C@](NC(=O)[C@H]3C=C4c5cccc6[nH]cc(c56)C[C@H]4N(C)C3)(C(C)C)C(=O)N12 [ergocryptinine] |  |  |  |  |  |  |  |  |  |  |  | duration of long-duration hypertension [6]: more than 60 minutes; vasoconstrictory effect [6]: vasoconstrictory effect; effect on isolated heart (in words) ([3]; isolated heart of guinea pig): qualitatively similar to that of ergotamine, ergosine and dihydroergotamine; effect on the strength of heart contraction (in words) ([3]; isolated heart of guinea pig): quantitatively greater effect on the strength of heart contraction; mydriatic effect (in words) [5]: strongest mydriatic effect
